Tested on: Sprague-Dawley rats
Assay: Intravenous infusion of humanin or analogs during hyperinsulinemic clamp
Assay type: in vivo, rat
Settings: IV during hyperinsulinemic clamp
Experimental: To study the acute effects of an infusion of IGFBP-3, two groups of awake, unstressed, chronically catheterized Sprague-Dawley rats (˜300 g) were studied for 300 min (n=3 in each group) under hyperinsulinemic clamp (as previously described). From 120 min the rats received a primed continuous infusion of humanin (0.375 mg/kg/hr) or saline (control) for an additional 2 h. Plasma samples for determination of [3H]glucose and [3H] water specific activities were obtained at 10-min intervals during the basal and clamp periods. Steady state conditions for the plasma glucose concentration and specific activity were achieved within 90 min in all the studies. Plasma samples for determination of HN, insulin and FFA concentrations were collected at 30-min intervals throughout the study. All determinations were also performed on portal vein blood obtained at the end of the experiments. The total amount of blood drawn during the entire study for various assays is ˜3 cc. After separation of plasma (subsequently used for analysis), the red blood cells were reconstituted in saline and infused back into the animal.
To determine if peripheral infusion of the humanin analog colivelin affects insulin action, saline or colivelin (one hundredth of the dose of humanin) was infused intravenously during hyperinsulinemic clamp to two groups of rats that were matched for body weight (˜300 gm), visceral fat (˜3.5 grams), basal glucose (˜135 mg % or 7 mM). Colivelin increased hepatic insulin sensitivity by 33% while peripheral glucose uptake was unchanged (FIG. 14).
A primed-continuous ICV infusion of HN, F6A-HN (total dose of 20 μg), STAT-3 inhibitor (75 pmol) (Buettner et al. 2006), or aCSF was initiated at t=0 and maintained for the remainder of the experiment (FIG. 15A). Pancreatic insulin-clamp studies or euglycemic-hyperinsulinemic clamps were performed in conscious, unrestrained, catheterized mice for last 120 minutes as described previously (Bahar et al. 2006, Muzumdar et al. 2006). In the intra-venous group, HN, F6A, Colivelin, and HNGF6A were infused intravenously and hyperinsulinemic clamps were performed as described previously (Loeb et al. 2005). Estimation of glucose, glucose fluxes, insulin, FFA were done as described previously (Loeb et al. 2005). HN measurements were performed by an in-house, ELISA utilizing affinity purified humanin antibodies that recognize both human and rat humanin and has a limit of detection of 0.1 ng/ml (Hwang, and Cohen personal communication).

[1] = humanin 0.375 mg/kg/hr, colivelin one hundredth of the dose of humanin

sallrsipap agasrllllt geidlp (SALLRSIPAPAGASRLLLLTGEIDLP; Humanin analog colivelin)
HGP / hepatic insulin action (HN 0.375 mg/kg/hr, Colivelin 0.00375 mg/kg/hr): significant further enhancement in hepatic insulin action | increase in hepatic insulin sensitivity [1]: 33% | peripheral glucose uptake [1]: unchanged
